# Results from patent publication US4157392A, “Pharmacologically active substituted 1,2,4-triazines” (Diamond Shamrock Corporation, priority 1978, dated 1979).
# Like-named read-outs stand apart in the source and are kept apart here.
# What was measured:
# [1] = system: carrageenin-induced edema in the hind paw of a rat; assay: Carrageenin Assay (carrageenin-induced edema, hind paw); type: in vivo, rat (male, Long Evans strain); settings: 1 h before carrageenin, edema at 3 h, compared to phenylbutazone control values; for inhibition in vivo at 40 mg/kg: 40 mg/kg oral
# Description: The procedure employed is a modification of the method of Winter et al, Proc. Soc. Exptl. Biol. Med. 111:544 (1962). The device used for measurement of the paw volume is an adaptation of the water displacement procedure described by Adamkiewicz et al, Can. J. Biochem. Physiol. 33:332 (1955). Test compounds were administered orally, one hour prior to the intraplantar injection of 0.05 ml. of sterile 1.0 percent solution of carrageenin into the left hind paw of male rats (Long Evans strain) weighing between about 130-200 grams. At peak swelling time (3 hours) the volume of edema was calculated by differential paw volumes.
# Table I sets forth the results obtained (indicated as percent reduction of edema compared to phenylbutazone control values) at the indicated dosages for each of the identified compounds.
# [2] = system: phenylquinone writhing in mice; assay: Phenylquinone Writhing Assay (analgesia); type: in vivo, mouse (Carworth CF1 male mice); settings: for responders at 12.5 mg/kg: 12.5 mg/kg oral; for responders at 25 mg/kg: 25 mg/kg oral; for responders at 50 mg/kg: 50 mg/kg oral; for responders at 15 mg/kg: 15 mg/kg oral; for responders at 10 mg/kg: 10 mg/kg oral
# How it was run: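 Male CF1 mice (ten per group) dosed orally in 0.25% methylcellulose, then challenged i.p. with 0.02% phenylquinone at 15, 30, 60 or 120 min post-dose. Mice showing no writhing over 10 min count as protected; percent analgesia = number protected ×10.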
# [3] = system: Spontaneously hypertensive rats; assay: SHR Assay (anti-hypertensive); type: in vivo, rat (spontaneously hypertensive); settings: for Mean Drop (systolic blood pressure): dose 100, oral
# Description: Spontaneously hypertensive rats, 12 to 16 weeks of age, were used in this assay. Systolic blood pressures were determined by the tail cuff method, utilizing capacitance transducers for the detection of pressure, an aneroid manometer for measuring pressure, and an oscilloscope for visualizing the disappearance and/or appearance of the pressure pulse. Heart rate was measured by a biotachometer. Groups of five rats having systolic blood pressures of 170 mmHg or greater were chosen and the test compounds administered at the doses indicated below (oral) as a solution or suspension in 0.25% methylcellulose (MC) at a volume of 5 ml/kg. One group served as the control and received the vehicle. Twenty-four hours after dosing, systolic blood pressure and heart rate were recorded. A second dose of compound was administered and blood pressure and heart rate determined at 4 and 24 hours after the second dose.
# [4] = system: tuberculostatic; settings: in vitro (J. Chem. Soc., 1956, 713-16); cited from earlier work
# [5] = system: yeast induced fever; assay: Antipyretic Assay (yeast induced fever); type: in vivo; settings: for temps. at 191/2 hrs. / temps. at 18 hrs. (Test Compounds Administered) / temps. at 0 hr.: 100 mg/kg; for temps. at 191/2 hrs.: 1 1/2 hrs. after administration; for temps. at 18 hrs. (Test Compounds Administered): at time of administration; for temps. at 0 hr.: before yeast fever and compound
# Description: As indicated previously, certain of the compounds of the invention also display excellent antipyretic activity. […] Antipyretic activity was measured utilizing the conventional yeast induced fever assay procedure (15% yeast solution injected at two sites).
# [6] = system: adjuvant-induced arthritis, hind paw of the rat; assay: Adjuvant-Arthritis Assay; type: in vivo
# [7] = system: central nervous system activity in mice; assay: Neuropharmacological Profile; type: in vivo, mouse (white male Carworth Farm Strain CF-1); settings: 300,100,30,10 mg/kg intraperitoneal
# Description: The central nervous system activity of certain of the preferred compounds in accordance with the present invention were determined using the following neuropharmacological profile assay procedures.
# White male mice of the Carworth Farm Strain (CF-1) weighing 18-22 grams were used in these determinations. […] Intraperitoneal injections were administered in logarithmic progression and sequentially. The dose levels employed routinely are 10, 30, 100, and 300 mg/kg, using four male mice at each dose level. Since this test was conducted in a sequential manner, the first dose administered was at 300 mg/kg. The mice were injected at this dose level and observed for gross changes produced by the drug, such as behavioral, neurological, autonomic, and toxic effects.
# The animals were observed continuously for one hour and if no signs of pharmacological or toxicological activity were present at the end of the first hour, they were intermittently checked for activity every fifteen minutes thereafter for two consecutive hours. […] Subsequent dose levels below 300 mg/kg were not administered in this case. Alternatively, if demonstrable pharmacological changes occurred within the first three hours after administration of the drug at 300 mg/kg, the subsequent doses were administered and the animals observed for changes in overt behavior. The observation period begins immediately following the injection and the animals are then continuously observed for three hours and intermittently checked thereafter for forty-eight hours. The animals were observed and signs and symptoms of pharmacological activity were recorded continuously until no further symptoms developed and until the symptoms that had appeared were no longer present. […] It was very important that the animals were free to move about for evaluation of spacial orientation, alertness, and spontaneous motor activity. The animals were systematically observed and manipulated to measure the onset, peak effect, duration and character of drug action.
# The major characteristics observed relative to central nervous system activity for the compounds indicated are summarized in the following Table IV.
# [8] = system: antihypertensive; settings: Burger, Medicinal Chemistry, 3rd Ed., 1027; cited from earlier work
# [9] = Mus musculus, po, 0.25 h, 15 Min., read-out: Phenylquinone Writhing Assay (% Control), percent analgesia
# [10] = Mus musculus, po, 0.5 h, 30 Min., read-out: Phenylquinone Writhing Assay (% Control), percent analgesia
# [11] = Mus musculus, po, 1 h, 60 Min, read-out: Phenylquinone Writhing Assay (% Control), percent analgesia
# [12] = Rattus norvegicus, read-out: % Reduction of Edema
molecule,measurement,setting,value
"3-Methylhydrazino-5-Phenyl-1,2,4-Triazine [Example 3A]",% Reduction of Edema,[1]; 100 mg/kg oral,76%
same,"Phenylquinone Writhing Assay (% Control), percent analgesia","[2]; 100 mg/kg oral, 15 Min.",60%
same,"Phenylquinone Writhing Assay (% Control), percent analgesia","[2]; 100 mg/kg oral, 30 Min.",30%
same,"Phenylquinone Writhing Assay (% Control), percent analgesia","[2]; 100 mg/kg oral, 60 Min",30%
same,Mean Drop (systolic blood pressure),[3]; 4 hr.,0 mm/Hg.
same,Mean Drop (systolic blood pressure),[3]; 24 hr.,49 mm/Hg.
same,Mean Drop (systolic blood pressure),[3]; second 4 hr. column (after second dose),56 mm/Hg.
same,Mean Drop (systolic blood pressure),[3]; second 24 hr column (after second dose),92 mm/Hg.
"Cc1nnc(S)nc1C [3-mercapto-5,6-dimethyl-1,2,4-triazine]",tuberculostatic activity,[4],tuberculostatic in vitro
"CC(=O)Oc1ccccc1C(=O)O [Aspirin, reference compound]",temps. at 191/2 hrs.,[5],37.8
same,temps. at 18 hrs. (Test Compounds Administered),[5],38.8
same,temps. at 0 hr.,[5],38.0
"COc1nncc(-c2ccccc2)n1 [Example 2, 3-methoxy-5-phenyl-1,2,4-triazine]",inhibition in vivo at 200 mg/kg,"[1]; Rattus norvegicus, 200 mg/kg oral, read-out: % Reduction of Edema",86%
same,responders at 12.5 mg/kg,[2]; [9],10%
same,responders at 25 mg/kg,[2]; [9],40%
same,responders at 50 mg/kg,[2]; [9],90%
same,responders at 12.5 mg/kg,[2]; [10],30%
same,responders at 25 mg/kg,[2]; [10],60%
same,responders at 50 mg/kg,[2]; [10],80%
same,responders at 12.5 mg/kg,[2]; [11],30%
same,responders at 25 mg/kg,[2]; [11],50%
same,responders at 50 mg/kg,[2]; [11],70%
same,Adjuvant-Arthritis Assay (% Reduction),"[6]; 40 mg/kg oral once daily, Day 3, developing disease",39%
same,Adjuvant-Arthritis Assay (% Reduction),"[6]; 40 mg/kg oral once daily, Day 10, developing disease",23%
same,Adjuvant-Arthritis Assay (% Reduction),"[6]; 40 mg/kg oral once daily, Day 17, developing disease",0%
same,Adjuvant-Arthritis Assay (% Reduction),"[6]; 80 mg/kg oral once daily, Day 3, developing disease",40%
same,Adjuvant-Arthritis Assay (% Reduction),"[6]; 80 mg/kg oral once daily, Day 10, developing disease",18%
same,Adjuvant-Arthritis Assay (% Reduction),"[6]; 80 mg/kg oral once daily, Day 17, developing disease",0%
same,Adjuvant-Arthritis Assay (% Reduction),"[6]; 120 mg/kg oral once daily, Day 3, developing disease",30%
same,Adjuvant-Arthritis Assay (% Reduction),"[6]; 120 mg/kg oral once daily, Day 10, developing disease",13%
same,Adjuvant-Arthritis Assay (% Reduction),"[6]; 120 mg/kg oral once daily, Day 17, developing disease",21%
same,temps. at 191/2 hrs.,[5],35.3
same,temps. at 18 hrs. (Test Compounds Administered),[5],39.0
same,temps. at 0 hr.,[5],38.1
same,antipyretic activity,[5]; compared to aspirin,comparable in activity to aspirin
"NNc1nncc(-c2ccccc2)n1 [Example 3, 3-hydrazino-5-phenyl-1,2,4-triazine]",inhibition in vivo at 40 mg/kg,[1]; [12],55%
same,responders at 100 mg/kg,"[2]; Mus musculus, po, 0.25 h, 100 mg/kg oral, 15 Min., read-out: Phenylquinone Writhing Assay (% Control), percent analgesia",100%
same,responders at 30 mg/kg,"[2]; Mus musculus, po, 0.5 h, 30 mg/kg oral, 30 Min., read-out: Phenylquinone Writhing Assay (% Control), percent analgesia",30%
same,responders at 70 mg/kg,"[2]; Mus musculus, po, 0.5 h, 70 mg/kg oral, 30 Min., read-out: Phenylquinone Writhing Assay (% Control), percent analgesia",90%
same,CNS Activity,[7],Antidepressant
same,antihypertensive activity,[8],moderately active antihypertensive agent
"O=C(NNc1nncc(-c2ccccc2)n1)C(F)(F)F [Example 7, 3-trifluoroacetyl hydrazino-5-phenyl-1,2,4-triazine]",inhibition in vivo at 150 mg/kg,"[1]; Rattus norvegicus, 150 mg/kg oral, read-out: % Reduction of Edema",41%
same,responders at 15 mg/kg,[2]; [9],50%
same,responders at 15 mg/kg,[2]; [11],10%
same,duration of activity (hypotensive),"[3]; rat, in vivo",long duration of activity
same,onset of action (hypotensive),"[3]; rat, in vivo",advantageous rapid onset of action
same,Adjuvant-Arthritis Assay (% Reduction),"[6]; 50 mg/kg oral once daily, Day 3, developing disease",30%
same,Adjuvant-Arthritis Assay (% Reduction),"[6]; 50 mg/kg oral once daily, Day 10, developing disease",30%
same,Adjuvant-Arthritis Assay (% Reduction),"[6]; 50 mg/kg oral once daily, Day 17, developing disease",39%
same,Adjuvant-Arthritis Assay (% Reduction),"[6]; 50 mg/kg oral, Day 20, established disease",4%
same,Adjuvant-Arthritis Assay (% Reduction),"[6]; 50 mg/kg oral, Day 27, established disease",24%
same,Adjuvant-Arthritis Assay (% Reduction),"[6]; 50 mg/kg oral, Day 31, established disease",29%
"Cc1nnc(NN)nc1C [Example 25, 3-hydrazino-5,6-dimethyl-1,2,4-triazine]",inhibition in vivo at 40 mg/kg,[1]; [12],46%
same,responders at 10 mg/kg,[2]; [9],20%
same,responders at 10 mg/kg,[2]; [10],10%
same,responders at 12.5 mg/kg,[2]; [10],20%
same,responders at 25 mg/kg,[2]; [10],90%
same,CNS Activity,[7],Antidepressant
